Assay results taken from the kinase profiling compilation of Christmann-Franck et al. (2016).

Experiments:
Experiment in all cases: KINOMEscan competition binding
Details in all cases: compound 10.0 µM
EPHB4 (human) = EPHB4 (human) (UniProt P54760)
TSSK1B (human) = TSSK1B (human) (UniProt Q9BXA7)
PRKD2 (human) = PRKD2 (human) (UniProt Q9BZL6)
RPS6KA2 KD1 (human) = RPS6KA2 KD1 (human) (UniProt Q15349)
NEK5 (human) = NEK5 (human) (UniProt Q6P3R8)
DDR1 (human) = DDR1 (human) (UniProt Q08345)
EPHA6 (human) = EPHA6 (human) (UniProt Q9UF33)
PKN2 (human) = PKN2 (human) (UniProt Q16513)
NUAK2 (human) = NUAK2 (human) (UniProt Q9H093)
MET (human) = MET (human) (UniProt P08581)
IGF1R (human) = IGF1R (human) (UniProt P08069)
Chain of IGF1R (human) (P08069 whole entry, looked up): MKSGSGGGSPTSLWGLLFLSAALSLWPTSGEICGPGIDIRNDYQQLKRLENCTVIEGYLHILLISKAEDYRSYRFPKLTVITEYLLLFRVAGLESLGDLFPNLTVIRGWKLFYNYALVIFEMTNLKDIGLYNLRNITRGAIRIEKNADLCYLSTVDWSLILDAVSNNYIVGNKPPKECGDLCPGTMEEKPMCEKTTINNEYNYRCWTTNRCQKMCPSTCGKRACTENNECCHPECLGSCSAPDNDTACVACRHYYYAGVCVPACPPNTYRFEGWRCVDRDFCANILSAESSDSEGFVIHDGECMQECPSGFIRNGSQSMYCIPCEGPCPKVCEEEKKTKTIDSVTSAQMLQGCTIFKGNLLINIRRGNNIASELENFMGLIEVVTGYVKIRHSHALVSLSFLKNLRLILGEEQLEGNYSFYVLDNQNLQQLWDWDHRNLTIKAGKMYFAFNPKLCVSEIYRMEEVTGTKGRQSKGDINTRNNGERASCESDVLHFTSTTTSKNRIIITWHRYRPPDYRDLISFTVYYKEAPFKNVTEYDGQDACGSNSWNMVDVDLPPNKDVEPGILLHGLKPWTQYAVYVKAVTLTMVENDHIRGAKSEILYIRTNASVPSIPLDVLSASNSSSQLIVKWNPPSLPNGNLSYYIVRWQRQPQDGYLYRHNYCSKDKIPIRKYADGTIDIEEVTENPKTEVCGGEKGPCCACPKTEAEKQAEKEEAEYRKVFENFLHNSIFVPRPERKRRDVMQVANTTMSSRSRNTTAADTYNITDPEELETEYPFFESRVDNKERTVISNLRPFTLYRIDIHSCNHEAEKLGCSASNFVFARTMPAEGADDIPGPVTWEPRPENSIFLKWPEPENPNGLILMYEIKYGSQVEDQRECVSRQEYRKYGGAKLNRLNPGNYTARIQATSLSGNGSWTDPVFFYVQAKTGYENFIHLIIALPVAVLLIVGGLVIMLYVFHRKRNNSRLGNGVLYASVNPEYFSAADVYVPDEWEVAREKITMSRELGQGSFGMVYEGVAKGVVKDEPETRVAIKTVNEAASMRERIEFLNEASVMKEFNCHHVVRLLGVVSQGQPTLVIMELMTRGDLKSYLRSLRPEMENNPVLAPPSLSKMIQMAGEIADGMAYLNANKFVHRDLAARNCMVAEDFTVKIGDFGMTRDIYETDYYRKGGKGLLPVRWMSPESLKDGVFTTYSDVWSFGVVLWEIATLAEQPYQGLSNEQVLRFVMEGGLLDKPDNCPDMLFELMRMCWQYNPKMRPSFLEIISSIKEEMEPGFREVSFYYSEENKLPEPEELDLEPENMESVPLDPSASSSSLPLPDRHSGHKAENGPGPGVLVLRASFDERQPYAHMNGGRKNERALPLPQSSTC

STK32C (human) = STK32C (human) (UniProt Q86UX6)
Chain of STK32C (human) (Q86UX6 whole entry, looked up): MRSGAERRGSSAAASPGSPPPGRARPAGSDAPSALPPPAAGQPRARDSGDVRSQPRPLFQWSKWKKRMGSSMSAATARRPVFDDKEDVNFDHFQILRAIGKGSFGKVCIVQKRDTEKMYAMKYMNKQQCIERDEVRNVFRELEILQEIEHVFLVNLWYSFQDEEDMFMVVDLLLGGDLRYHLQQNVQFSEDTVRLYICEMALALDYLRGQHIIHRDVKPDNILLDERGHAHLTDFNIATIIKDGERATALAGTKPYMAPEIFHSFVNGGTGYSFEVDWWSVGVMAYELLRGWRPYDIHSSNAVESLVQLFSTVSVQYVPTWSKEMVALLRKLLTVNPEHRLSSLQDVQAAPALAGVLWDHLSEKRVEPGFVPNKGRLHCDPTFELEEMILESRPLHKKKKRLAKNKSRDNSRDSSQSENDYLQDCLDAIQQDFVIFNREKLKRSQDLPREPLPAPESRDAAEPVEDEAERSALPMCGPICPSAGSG

AAK1 (human) = AAK1 (human) (UniProt Q2M2I8)
RIOK2 (human) = RIOK2 (human) (UniProt Q9BVS4)
CSNK1D (human) = CSNK1D (human) (UniProt P48730)
PLK4 (human) = PLK4 (human) (UniProt O00444)
PRKD3 (human) = PRKD3 (human) (UniProt O94806)
CDK5 (human) = CDK5 (human) (UniProt Q00535)
IKBKB (human) = IKBKB (human) (UniProt O14920)
AKT1 (human) = AKT1 (human) (UniProt P31749)
DCLK1 (human) = DCLK1 (human) (UniProt O15075)
MAPK8 (human) = MAPK8 (human) (UniProt P45983)
EPHB3 (human) = EPHB3 (human) (UniProt P54753)
PAK6 (human) = PAK6 (human) (UniProt Q9NQU5)
Chain of PAK6 (human) (Q9NQU5 whole entry, looked up): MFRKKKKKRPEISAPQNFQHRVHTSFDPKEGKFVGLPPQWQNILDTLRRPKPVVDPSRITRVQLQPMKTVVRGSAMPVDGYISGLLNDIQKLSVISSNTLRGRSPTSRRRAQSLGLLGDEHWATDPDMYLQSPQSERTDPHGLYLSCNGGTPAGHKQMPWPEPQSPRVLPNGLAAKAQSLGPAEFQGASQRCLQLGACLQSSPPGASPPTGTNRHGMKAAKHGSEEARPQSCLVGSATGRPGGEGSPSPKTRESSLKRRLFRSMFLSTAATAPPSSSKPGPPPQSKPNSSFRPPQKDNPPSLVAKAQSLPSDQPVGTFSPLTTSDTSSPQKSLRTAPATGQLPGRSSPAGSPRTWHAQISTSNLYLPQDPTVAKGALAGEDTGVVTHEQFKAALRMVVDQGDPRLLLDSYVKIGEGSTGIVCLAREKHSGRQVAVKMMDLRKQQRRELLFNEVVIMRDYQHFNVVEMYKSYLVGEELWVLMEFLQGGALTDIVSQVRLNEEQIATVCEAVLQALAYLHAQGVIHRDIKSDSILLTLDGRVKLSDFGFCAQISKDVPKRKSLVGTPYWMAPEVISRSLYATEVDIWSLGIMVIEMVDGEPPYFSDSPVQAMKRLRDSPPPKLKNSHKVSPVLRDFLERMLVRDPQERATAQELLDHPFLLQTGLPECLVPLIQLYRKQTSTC

ACVR1B (human) = ACVR1B (human) (UniProt P36896)
NUAK1 (human) = NUAK1 (human) (UniProt O60285)
CDC42BPA (human) = CDC42BPA (human) (UniProt Q5VT25)
CAMKK1 (human) = CAMKK1 (human) (UniProt Q8N5S9)
FES (human) = FES (human) (UniProt P07332)
Chain of FES (human) (P07332 whole entry, looked up): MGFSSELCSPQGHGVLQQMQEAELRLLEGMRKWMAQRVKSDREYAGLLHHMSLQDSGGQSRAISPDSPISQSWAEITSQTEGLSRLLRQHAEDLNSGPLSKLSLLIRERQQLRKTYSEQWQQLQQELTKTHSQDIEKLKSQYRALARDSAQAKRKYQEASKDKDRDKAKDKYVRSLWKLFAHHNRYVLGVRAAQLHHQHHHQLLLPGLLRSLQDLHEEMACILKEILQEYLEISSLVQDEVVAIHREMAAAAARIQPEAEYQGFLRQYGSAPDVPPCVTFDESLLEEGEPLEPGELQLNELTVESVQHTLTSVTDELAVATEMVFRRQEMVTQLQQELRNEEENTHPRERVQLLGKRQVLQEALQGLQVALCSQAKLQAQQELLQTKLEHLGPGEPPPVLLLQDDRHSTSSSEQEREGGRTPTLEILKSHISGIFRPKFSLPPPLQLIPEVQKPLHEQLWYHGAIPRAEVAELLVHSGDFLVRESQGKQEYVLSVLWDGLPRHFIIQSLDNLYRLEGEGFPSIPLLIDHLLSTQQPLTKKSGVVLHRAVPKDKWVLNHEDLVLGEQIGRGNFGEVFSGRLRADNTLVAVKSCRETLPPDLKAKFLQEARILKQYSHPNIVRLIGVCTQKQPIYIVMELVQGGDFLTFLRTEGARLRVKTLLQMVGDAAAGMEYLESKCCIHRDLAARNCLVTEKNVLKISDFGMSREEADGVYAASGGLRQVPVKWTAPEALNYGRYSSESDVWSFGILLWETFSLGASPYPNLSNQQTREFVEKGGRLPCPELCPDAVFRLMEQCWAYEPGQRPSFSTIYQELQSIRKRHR

ACVR2A (human) = ACVR2A (human) (UniProt P27037)
CDK14 (human) = CDK14 (human) (UniProt O94921)
PRKCE (human) = PRKCE (human) (UniProt Q02156)
Chain of PRKCE (human) (Q02156 whole entry, looked up): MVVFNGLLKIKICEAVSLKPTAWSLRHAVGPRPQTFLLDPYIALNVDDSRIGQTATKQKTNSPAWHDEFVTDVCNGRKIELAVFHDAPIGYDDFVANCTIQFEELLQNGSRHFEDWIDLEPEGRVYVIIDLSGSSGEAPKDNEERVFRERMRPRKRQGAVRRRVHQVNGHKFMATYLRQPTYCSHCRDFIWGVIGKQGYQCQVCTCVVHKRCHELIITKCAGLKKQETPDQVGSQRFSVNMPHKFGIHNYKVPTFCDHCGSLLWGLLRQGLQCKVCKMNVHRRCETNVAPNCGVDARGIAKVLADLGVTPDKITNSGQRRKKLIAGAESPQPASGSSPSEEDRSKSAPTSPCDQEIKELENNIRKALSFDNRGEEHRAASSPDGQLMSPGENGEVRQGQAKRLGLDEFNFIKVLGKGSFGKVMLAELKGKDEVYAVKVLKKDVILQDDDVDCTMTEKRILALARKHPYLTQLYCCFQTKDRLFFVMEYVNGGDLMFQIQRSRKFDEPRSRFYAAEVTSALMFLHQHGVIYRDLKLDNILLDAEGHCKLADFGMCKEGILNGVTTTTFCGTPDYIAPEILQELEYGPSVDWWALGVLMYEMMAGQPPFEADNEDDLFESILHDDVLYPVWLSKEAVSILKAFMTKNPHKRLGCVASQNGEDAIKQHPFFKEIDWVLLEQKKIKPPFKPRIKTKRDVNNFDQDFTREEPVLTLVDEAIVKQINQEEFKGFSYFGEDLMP

MYLK2 (human) = MYLK2 (human) (UniProt Q9H1R3)
AXL (human) = AXL (human) (UniProt P30530)
Chain of AXL (human) (P30530 whole entry, looked up): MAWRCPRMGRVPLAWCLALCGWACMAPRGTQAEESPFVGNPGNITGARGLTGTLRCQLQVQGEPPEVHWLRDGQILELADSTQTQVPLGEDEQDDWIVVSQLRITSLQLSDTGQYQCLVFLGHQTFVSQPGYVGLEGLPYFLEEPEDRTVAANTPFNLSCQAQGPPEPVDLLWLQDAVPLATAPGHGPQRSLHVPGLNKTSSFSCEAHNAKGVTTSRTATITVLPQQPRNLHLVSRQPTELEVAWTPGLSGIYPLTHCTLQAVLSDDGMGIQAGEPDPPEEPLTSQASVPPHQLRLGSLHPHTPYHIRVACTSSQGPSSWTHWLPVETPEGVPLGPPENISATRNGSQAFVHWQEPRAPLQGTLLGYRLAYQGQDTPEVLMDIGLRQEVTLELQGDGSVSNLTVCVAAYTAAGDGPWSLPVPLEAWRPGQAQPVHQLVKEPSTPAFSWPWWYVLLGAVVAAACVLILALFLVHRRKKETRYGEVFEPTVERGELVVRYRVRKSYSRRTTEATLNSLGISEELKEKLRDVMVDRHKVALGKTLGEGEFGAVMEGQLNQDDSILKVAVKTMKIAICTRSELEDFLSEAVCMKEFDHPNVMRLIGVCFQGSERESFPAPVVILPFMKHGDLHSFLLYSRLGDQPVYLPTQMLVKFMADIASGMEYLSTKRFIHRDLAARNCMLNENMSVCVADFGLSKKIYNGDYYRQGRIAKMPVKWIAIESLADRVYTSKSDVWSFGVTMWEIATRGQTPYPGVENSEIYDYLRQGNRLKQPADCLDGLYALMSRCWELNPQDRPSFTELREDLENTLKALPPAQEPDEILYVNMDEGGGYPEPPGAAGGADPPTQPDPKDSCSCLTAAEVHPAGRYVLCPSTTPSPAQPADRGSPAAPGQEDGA

Row | kinase still bound, per cent of control (EPHB4 (human)) [%] | kinase still bound, per cent of control (TSSK1B (human)) [%] | kinase still bound, per cent of control (PRKD2 (human)) [%] | kinase still bound, per cent of control (RPS6KA2 KD1 (human)) [%] | kinase still bound, per cent of control (NEK5 (human)) [%] | kinase still bound, per cent of control (DDR1 (human)) [%] | kinase still bound, per cent of control (EPHA6 (human)) [%] | kinase still bound, per cent of control (PKN2 (human)) [%] | kinase still bound, per cent of control (NUAK2 (human)) [%] | kinase still bound, per cent of control (MET (human)) [%] | kinase still bound, per cent of control (IGF1R (human)) [%] | kinase still bound, per cent of control (STK32C (human)) [%] | kinase still bound, per cent of control (AAK1 (human)) [%] | kinase still bound, per cent of control (PLK4 (human)) [%] | kinase still bound, per cent of control (PRKD3 (human)) [%] | kinase still bound, per cent of control (AKT1 (human)) [%] | kinase still bound, per cent of control (DCLK1 (human)) [%] | kinase still bound, per cent of control (MAPK8 (human)) [%] | kinase still bound, per cent of control (EPHB3 (human)) [%] | kinase still bound, per cent of control (PAK6 (human)) [%] | SMILES | other results
1 | 100 | 100 | 100 | 1.8 | 100 | 100 | 29 | 5.4 | 0.4 | 1 | 2.2 | 100 | 11 | 4.5 | 100 | 100 | 100 | 7.3 | 100 | 100 | CNC(=O)c1ccc(Nc2cc(Nc3ccccc3S(=O)(=O)C(C)C)c3cc[nH]c3n2)nc1 | kinase still bound, per cent of control (RIOK2 (human)): 13%; kinase still bound, per cent of control (CSNK1D (human)): 100%; kinase still bound, per cent of control (CDK5 (human)): 28%; kinase still bound, per cent of control (IKBKB (human)): 100%; kinase still bound, per cent of control (ACVR1B (human)): 100%; kinase still bound, per cent of control (NUAK1 (human)): 0.95%; kinase still bound, per cent of control (CDC42BPA (human)): 100%; kinase still bound, per cent of control (CAMKK1 (human)): 100%; kinase still bound, per cent of control (FES (human)): 12%; kinase still bound, per cent of control (ACVR2A (human)): 100%; kinase still bound, per cent of control (CDK14 (human)): 100%; kinase still bound, per cent of control (PRKCE (human)): 18%; kinase still bound, per cent of control (MYLK2 (human)): 100%; kinase still bound, per cent of control (AXL (human)): 1.3%
2 | 100 | 100 | 100 | 100 | 100 | 0 | 100 | 100 | 100 | 100 | 16 | 100 | 100 | 100 | 100 | 100 | 100 | 100 | 100 | 100 | C=CC(=O)Nc1ccc(CN(C(=O)Nc2c(Cl)c(OC)cc(OC)c2Cl)c2cc(Nc3ccc(N4CCN(C)CC4)cc3)ncn2)cc1 | kinase still bound, per cent of control (RIOK2 (human)): 100%; kinase still bound, per cent of control (CSNK1D (human)): 100%; kinase still bound, per cent of control (CDK5 (human)): 100%; kinase still bound, per cent of control (IKBKB (human)): 100%; kinase still bound, per cent of control (ACVR1B (human)): 100%; kinase still bound, per cent of control (NUAK1 (human)): 100%; kinase still bound, per cent of control (CDC42BPA (human)): 100%; kinase still bound, per cent of control (CAMKK1 (human)): 100%; kinase still bound, per cent of control (FES (human)): 4%; kinase still bound, per cent of control (ACVR2A (human)): 100%; kinase still bound, per cent of control (CDK14 (human)): 100%; kinase still bound, per cent of control (PRKCE (human)): 100%; kinase still bound, per cent of control (MYLK2 (human)): 100%; kinase still bound, per cent of control (AXL (human)): 100%
3 | 100 | 100 | 100 | 100 | 100 | 1.1 | 100 | 100 | 100 | 100 | 100 | 100 | 100 | 100 | 100 | 100 | 100 | 100 | 100 | 100 | CCN(CC)CCCCNc1ncc2cc(-c3cc(OC)cc(OC)c3)c(NC(=O)NC(C)(C)C)nc2n1 | kinase still bound, per cent of control (CSNK1D (human)): 100%; kinase still bound, per cent of control (CDK5 (human)): 100%; kinase still bound, per cent of control (ACVR1B (human)): 100%; kinase still bound, per cent of control (NUAK1 (human)): 100%; kinase still bound, per cent of control (CDC42BPA (human)): 100%; kinase still bound, per cent of control (CAMKK1 (human)): 100%; kinase still bound, per cent of control (FES (human)): 100%; kinase still bound, per cent of control (ACVR2A (human)): 100%; kinase still bound, per cent of control (CDK14 (human)): 100%; kinase still bound, per cent of control (PRKCE (human)): 100%; kinase still bound, per cent of control (MYLK2 (human)): 100%; kinase still bound, per cent of control (AXL (human)): 100%

Row | SMILES | kinase still bound, per cent of control (EPHB4 (human)) [%] | kinase still bound, per cent of control (TSSK1B (human)) [%] | kinase still bound, per cent of control (PRKD2 (human)) [%] | kinase still bound, per cent of control (RPS6KA2 KD1 (human)) [%] | kinase still bound, per cent of control (NEK5 (human)) [%] | kinase still bound, per cent of control (DDR1 (human)) [%] | kinase still bound, per cent of control (EPHA6 (human)) [%] | kinase still bound, per cent of control (PKN2 (human)) [%] | kinase still bound, per cent of control (NUAK2 (human)) [%] | kinase still bound, per cent of control (MET (human)) [%] | kinase still bound, per cent of control (IGF1R (human)) [%] | kinase still bound, per cent of control (STK32C (human)) [%] | kinase still bound, per cent of control (AAK1 (human)) [%] | kinase still bound, per cent of control (PLK4 (human)) [%] | kinase still bound, per cent of control (PRKD3 (human)) [%] | kinase still bound, per cent of control (AKT1 (human)) [%] | kinase still bound, per cent of control (DCLK1 (human)) [%] | kinase still bound, per cent of control (MAPK8 (human)) [%] | kinase still bound, per cent of control (EPHB3 (human)) [%] | kinase still bound, per cent of control (PAK6 (human)) [%] | other results
4 | Cc1n[nH]c2ccc(-c3cncc(OC[C@@H](N)Cc4c[nH]c5ccccc45)c3)cc12 | 100 | 100 | 0 | 29 | 100 | 100 | 100 | 2.4 | 1.9 | 100 | 100 | 100 | 1.8 | 100 | 1.6 | 1.8 | 100 | 100 | 100 | 16 | kinase still bound, per cent of control (RIOK2 (human)): 6.2%; kinase still bound, per cent of control (IKBKB (human)): 34%; kinase still bound, per cent of control (ACVR1B (human)): 100%; kinase still bound, per cent of control (NUAK1 (human)): 100%; kinase still bound, per cent of control (CDC42BPA (human)): 6.6%; kinase still bound, per cent of control (CAMKK1 (human)): 2.4%; kinase still bound, per cent of control (FES (human)): 100%; kinase still bound, per cent of control (ACVR2A (human)): 100%; kinase still bound, per cent of control (CDK14 (human)): 9.8%; kinase still bound, per cent of control (PRKCE (human)): 0%; kinase still bound, per cent of control (MYLK2 (human)): 100%; kinase still bound, per cent of control (AXL (human)): 14%
